Results taken from patent publication US20230381332A1, “Deuterated Camptothecin Derivative And Antibody-drug Conjugate Thereof” (Baili-Bio (Chengdu) Pharmaceutical Co., Ltd., priority 2020, published 2023).

Assay: Clearance half-life test of deuterated camptothecin drugs in liver microsomes
Type: in vitro ADME, Human
Protocol: Embodiment 36: Clearance Half-Life Test of Deuterated Camptothecin Drugs
Human liver microsomes (supplied by Xenotech))
1. Add the working solution of the test substance to the liver microsome working solution and pre-incubate at 37° C. for 5 minutes, then add the prepared NADPH working solution and mix well. Make the reaction volume of the incubation system reach 200 μL, and the liver microsomes concentration in the incubation system is 1.0 mg/mL, the test substance concentration is 10 μM. The incubation tube is incubated in a water bath at 37° C. for 120 minutes. In the incubation system of the test substance, total organic solvents (DMSO and acetonitrile or other organic The minimum volume content of the solvent) is <1%, and the DMSO content is <0.1%. All operations are performed on wet ice.
2. For the blank sample, add the corresponding volume of phosphate buffer solution instead of the working solution of the test substance. For the 0 min sample, first add the stop solution and the liver microsome solution and mix well, and then add the working solution of the test substance.
3. At the end of the incubation, add 400 μL of stop solution to terminate the reaction, and remove the incubation sample from the water bath.
4. After the reaction was terminated, the sample was shaken and centrifuged at a centrifugal force of 4700 g for 10 minutes. After centrifugation, 200 μL of the supernatant was pipetted into a 96-well plate and directly used for LC-MS analysis to analyze metabolites and main drug ratio.

[1] = human liver microsomes 1.0 mg/ml, 10 μM test article, NADPH 1.0 mM, 37° C., 120 minutes

| SMILES | Ratio of main drug after incubation (human, 120 min, 10 μM) [%] | Ratio of main drug after incubation [1] [%] |
| --- | --- | --- |
| [2H]C([2H])([2H])N(C(=O)CO)[C@@H]1CCc2c(C)c(F)cc3nc4c(c1c23)Cn1c-4cc2c(c1=O)COC(=O)[C@]2(O)CC [D-D15] | 91 |  |
| [2H]C(O)(C(=O)N[C@H]1CCc2c(C)c(F)cc3nc4c(c1c23)Cn1c-4cc2c(c1=O)COC(=O)[C@]2(O)CC)C1CC1 (stereo partly drawn) [D-D7] | 96 |  |
| CC[C@@]1(O)C(=O)OCc2c1cc1n(c2=O)Cc2c-1nc1cc(F)c(C)c3c1c2[C@@H](NC(=O)[C@H](O)C(F)(F)F)CC3 [Compound 5, reference compound] | 73 |  |
| [2H]C([2H])([2H])C(O)C(=O)N(C)[C@@H]1CCc2c(C)c(F)cc3nc4c(c1c23)Cn1c-4cc2c(c1=O)COC(=O)[C@]2(O)CC (stereo partly drawn) [D-D19] | 97 |  |
| [2H]C(O)(C(=O)N[C@H]1CCc2c(C)c(F)cc3nc4c(c1c23)Cn1c-4cc2c(c1=O)COC(=O)[C@]2(O)CC)C(F)(F)F (stereo partly drawn) [D-D5] | 99 |  |
| CC[C@@]1(O)C(=O)OCc2c1cc1n(c2=O)Cc2c-1nc1cc(F)c(C)c3c1c2[C@@H](NC(=O)[C@H](C)O)CC3 [Compound 3, reference compound] | 56 |  |
| [2H]C(O)C(=O)N[C@H]1CCc2c(C)c(F)cc3nc4c(c1c23)Cn1c-4cc2c(c1=O)COC(=O)[C@]2(O)CC (stereo partly drawn) [D-D1] |  | 98 |
| [2H]C(C)(O)C(=O)N[C@H]1CCc2c(C)c(F)cc3nc4c(c1c23)Cn1c-4cc2c(c1=O)COC(=O)[C@]2(O)CC (stereo partly drawn) [D-D3] | 97 |  |
| CC[C@@]1(O)C(=O)OCc2c1cc1n(c2=O)Cc2c-1nc1cc(F)c(C)c3c1c2[C@@H](NC(=O)CO)CC3 [Compound 2, reference compound] |  | 65 |
| [2H]C([2H])([2H])C([2H])(O)C(=O)N[C@H]1CCc2c(C)c(F)cc3nc4c(c1c23)Cn1c-4cc2c(c1=O)COC(=O)[C@]2(O)CC (stereo partly drawn) [D-D11] | 96 |  |
| CC[C@@]1(O)C(=O)OCc2c1cc1n(c2=O)Cc2c-1nc1cc(F)c(C)c3c1c2[C@@H](NC(=O)[C@@H](O)C1CC1)CC3 [Compound 7, reference compound] | 85 |  |
